Source: ChEMBL document CHEMBL5291721, “A preclinical secondary pharmacology resource illuminates target-adverse drug reaction associations of marketed drugs” (Nat Commun, 2023)

Key:
Adenosine receptor A1 = target: T1, Adenosine receptor A1 (Homo sapiens, UniProt P30542)
T1 sequence (P30542 whole entry): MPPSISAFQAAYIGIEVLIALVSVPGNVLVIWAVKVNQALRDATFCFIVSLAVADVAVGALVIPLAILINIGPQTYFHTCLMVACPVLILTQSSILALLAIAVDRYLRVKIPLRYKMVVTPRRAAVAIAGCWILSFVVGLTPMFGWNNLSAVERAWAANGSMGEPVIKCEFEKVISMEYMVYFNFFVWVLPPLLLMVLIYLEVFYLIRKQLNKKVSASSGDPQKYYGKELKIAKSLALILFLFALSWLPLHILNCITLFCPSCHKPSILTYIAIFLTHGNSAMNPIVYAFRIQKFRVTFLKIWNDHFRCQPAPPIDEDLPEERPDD

[1] = target: T2, Alpha-1A adrenergic receptor (Homo sapiens, UniProt P35348)
T2 sequence (P35348 whole entry): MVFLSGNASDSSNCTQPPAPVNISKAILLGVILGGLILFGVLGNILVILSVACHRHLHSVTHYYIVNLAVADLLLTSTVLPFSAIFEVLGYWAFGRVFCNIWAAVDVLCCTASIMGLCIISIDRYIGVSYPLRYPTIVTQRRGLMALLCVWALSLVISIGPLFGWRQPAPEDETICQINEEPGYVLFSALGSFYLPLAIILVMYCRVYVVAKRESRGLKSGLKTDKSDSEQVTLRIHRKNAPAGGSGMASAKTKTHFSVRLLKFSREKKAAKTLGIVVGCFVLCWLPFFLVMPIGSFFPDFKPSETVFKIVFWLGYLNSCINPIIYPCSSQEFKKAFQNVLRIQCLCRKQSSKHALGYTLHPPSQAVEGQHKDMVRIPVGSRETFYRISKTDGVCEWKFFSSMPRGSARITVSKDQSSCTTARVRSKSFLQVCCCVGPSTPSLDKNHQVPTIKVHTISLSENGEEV

[2] = target: T3, Alpha-2A adrenergic receptor (Homo sapiens, UniProt P08913); assay type: functional, cell-based
T3 sequence (P08913 whole entry): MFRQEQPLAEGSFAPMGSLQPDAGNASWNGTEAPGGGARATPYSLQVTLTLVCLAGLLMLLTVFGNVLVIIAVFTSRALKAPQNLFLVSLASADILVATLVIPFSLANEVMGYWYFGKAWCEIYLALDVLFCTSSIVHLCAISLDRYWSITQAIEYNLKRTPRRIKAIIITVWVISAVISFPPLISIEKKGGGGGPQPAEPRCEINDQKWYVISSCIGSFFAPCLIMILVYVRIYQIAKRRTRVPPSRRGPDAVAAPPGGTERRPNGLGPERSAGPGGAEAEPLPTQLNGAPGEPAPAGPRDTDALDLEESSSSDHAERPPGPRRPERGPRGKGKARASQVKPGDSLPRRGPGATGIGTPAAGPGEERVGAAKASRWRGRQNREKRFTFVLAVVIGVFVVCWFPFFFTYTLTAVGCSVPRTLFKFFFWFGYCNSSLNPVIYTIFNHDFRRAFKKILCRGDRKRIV

[3] = target: Voltage-dependent L-type calcium channel subunit alpha-1C (Rattus norvegicus, UniProt P22002); assay type: functional
[4] = target: Neuronal acetylcholine receptor subunit alpha-4 (Homo sapiens, UniProt P43681)
Sequence of Neuronal acetylcholine receptor subunit alpha-4 (P43681 whole entry): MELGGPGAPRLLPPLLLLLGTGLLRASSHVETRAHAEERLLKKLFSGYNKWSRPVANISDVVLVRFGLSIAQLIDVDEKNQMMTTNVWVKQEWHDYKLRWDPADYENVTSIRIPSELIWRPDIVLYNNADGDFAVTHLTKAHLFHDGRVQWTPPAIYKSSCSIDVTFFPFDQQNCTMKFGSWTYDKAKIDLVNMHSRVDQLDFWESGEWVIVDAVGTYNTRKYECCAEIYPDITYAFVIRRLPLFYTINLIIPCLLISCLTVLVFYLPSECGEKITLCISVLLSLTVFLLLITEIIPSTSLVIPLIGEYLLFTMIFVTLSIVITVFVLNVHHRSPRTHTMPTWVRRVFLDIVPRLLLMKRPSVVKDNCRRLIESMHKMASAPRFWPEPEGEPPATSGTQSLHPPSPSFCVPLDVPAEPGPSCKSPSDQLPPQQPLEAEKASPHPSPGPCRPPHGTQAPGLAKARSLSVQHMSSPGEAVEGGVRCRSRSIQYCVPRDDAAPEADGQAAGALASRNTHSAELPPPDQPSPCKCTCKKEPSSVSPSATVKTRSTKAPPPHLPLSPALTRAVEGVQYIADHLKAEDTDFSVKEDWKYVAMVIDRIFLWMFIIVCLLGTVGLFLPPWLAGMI

[5] = target: Growth hormone secretagogue receptor type 1 (Homo sapiens, UniProt Q92847)
Sequence of Growth hormone secretagogue receptor type 1 (Q92847 whole entry): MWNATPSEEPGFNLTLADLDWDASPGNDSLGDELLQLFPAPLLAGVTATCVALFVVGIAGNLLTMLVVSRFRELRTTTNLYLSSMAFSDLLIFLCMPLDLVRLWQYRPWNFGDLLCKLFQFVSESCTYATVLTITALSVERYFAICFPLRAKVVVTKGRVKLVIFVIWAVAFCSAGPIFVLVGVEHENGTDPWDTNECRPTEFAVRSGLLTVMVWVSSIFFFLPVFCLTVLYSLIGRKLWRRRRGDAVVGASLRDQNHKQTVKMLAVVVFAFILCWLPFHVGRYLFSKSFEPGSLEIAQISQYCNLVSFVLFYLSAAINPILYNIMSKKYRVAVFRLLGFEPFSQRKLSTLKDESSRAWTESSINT

Histamine H2 receptor = Histamine H2 receptor (Homo sapiens, UniProt P25021); assay type: functional, cell-based
Sequence of Histamine H2 receptor (P25021 whole entry): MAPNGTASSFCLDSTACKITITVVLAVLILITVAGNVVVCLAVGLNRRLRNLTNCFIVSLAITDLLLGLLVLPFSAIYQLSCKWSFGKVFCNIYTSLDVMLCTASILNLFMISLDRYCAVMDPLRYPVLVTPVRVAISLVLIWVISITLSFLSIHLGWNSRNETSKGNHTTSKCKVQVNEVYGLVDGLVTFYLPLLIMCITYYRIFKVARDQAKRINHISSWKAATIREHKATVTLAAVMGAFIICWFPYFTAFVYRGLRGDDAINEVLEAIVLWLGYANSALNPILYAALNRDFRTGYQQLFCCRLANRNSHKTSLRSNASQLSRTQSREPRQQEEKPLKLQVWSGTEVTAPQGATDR

[6] = target: 5-hydroxytryptamine receptor 2B (Homo sapiens, UniProt P41595); assay type: functional, cell-based
Sequence of 5-hydroxytryptamine receptor 2B (P41595 whole entry): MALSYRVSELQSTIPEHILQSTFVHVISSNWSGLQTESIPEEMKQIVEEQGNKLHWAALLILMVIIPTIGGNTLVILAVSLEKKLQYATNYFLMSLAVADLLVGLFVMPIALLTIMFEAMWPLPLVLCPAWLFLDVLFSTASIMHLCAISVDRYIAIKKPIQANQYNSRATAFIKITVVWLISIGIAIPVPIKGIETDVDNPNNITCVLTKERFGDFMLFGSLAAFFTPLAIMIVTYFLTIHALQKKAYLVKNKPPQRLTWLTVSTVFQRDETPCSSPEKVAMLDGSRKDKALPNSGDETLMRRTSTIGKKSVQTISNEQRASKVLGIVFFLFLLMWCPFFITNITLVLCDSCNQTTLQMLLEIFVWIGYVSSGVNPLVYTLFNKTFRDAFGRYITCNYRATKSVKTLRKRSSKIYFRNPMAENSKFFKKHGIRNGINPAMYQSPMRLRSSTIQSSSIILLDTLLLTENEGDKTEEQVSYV

[7] = target: T4, 5-hydroxytryptamine receptor 2C (Homo sapiens, UniProt P28335)
T4 sequence (P28335 whole entry): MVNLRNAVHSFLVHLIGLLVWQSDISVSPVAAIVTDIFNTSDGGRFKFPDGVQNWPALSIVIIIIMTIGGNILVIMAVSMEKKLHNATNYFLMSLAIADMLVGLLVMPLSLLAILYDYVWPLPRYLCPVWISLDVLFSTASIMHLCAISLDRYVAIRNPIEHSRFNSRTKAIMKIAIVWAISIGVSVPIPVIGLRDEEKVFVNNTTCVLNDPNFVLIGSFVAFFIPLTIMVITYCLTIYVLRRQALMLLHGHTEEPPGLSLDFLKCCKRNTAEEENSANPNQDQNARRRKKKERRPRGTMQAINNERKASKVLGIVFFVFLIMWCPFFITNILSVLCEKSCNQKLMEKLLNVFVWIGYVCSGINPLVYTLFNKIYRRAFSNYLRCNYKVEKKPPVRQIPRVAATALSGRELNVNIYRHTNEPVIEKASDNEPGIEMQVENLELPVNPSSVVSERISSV

Melanocortin receptor 4 = Melanocortin receptor 4 (Homo sapiens, UniProt P32245)
Sequence of Melanocortin receptor 4 (P32245 whole entry): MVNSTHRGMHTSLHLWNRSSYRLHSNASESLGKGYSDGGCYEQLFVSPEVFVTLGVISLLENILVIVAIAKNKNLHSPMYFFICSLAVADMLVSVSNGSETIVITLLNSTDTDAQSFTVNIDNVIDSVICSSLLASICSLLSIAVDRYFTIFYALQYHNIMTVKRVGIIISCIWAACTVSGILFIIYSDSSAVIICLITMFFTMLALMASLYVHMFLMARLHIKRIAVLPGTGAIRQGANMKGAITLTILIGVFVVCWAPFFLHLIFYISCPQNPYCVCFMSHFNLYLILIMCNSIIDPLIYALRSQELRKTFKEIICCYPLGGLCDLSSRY

[8] = target: Sodium-dependent dopamine transporter (Homo sapiens, UniProt Q01959)
Sequence of Sodium-dependent dopamine transporter (Q01959 whole entry): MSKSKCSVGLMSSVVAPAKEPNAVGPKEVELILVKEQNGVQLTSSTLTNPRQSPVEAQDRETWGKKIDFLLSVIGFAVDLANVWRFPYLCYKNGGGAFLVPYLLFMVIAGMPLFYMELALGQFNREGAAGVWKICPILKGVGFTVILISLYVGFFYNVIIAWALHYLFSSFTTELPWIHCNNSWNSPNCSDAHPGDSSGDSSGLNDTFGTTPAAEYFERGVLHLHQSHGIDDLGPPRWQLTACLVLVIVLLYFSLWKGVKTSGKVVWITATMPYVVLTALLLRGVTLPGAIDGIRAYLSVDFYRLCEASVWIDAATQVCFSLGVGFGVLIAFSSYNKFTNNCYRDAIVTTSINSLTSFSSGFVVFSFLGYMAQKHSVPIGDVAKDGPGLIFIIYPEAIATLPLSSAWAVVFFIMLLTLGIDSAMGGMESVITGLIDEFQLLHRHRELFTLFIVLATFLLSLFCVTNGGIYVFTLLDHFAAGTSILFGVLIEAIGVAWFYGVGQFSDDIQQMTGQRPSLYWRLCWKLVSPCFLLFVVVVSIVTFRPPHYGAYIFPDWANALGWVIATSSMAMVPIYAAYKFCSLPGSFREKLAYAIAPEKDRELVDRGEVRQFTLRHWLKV

[9] = target: T5, Amine oxidase [flavin-containing] A (Homo sapiens, UniProt P21397); assay type: functional
T5 sequence (P21397 whole entry): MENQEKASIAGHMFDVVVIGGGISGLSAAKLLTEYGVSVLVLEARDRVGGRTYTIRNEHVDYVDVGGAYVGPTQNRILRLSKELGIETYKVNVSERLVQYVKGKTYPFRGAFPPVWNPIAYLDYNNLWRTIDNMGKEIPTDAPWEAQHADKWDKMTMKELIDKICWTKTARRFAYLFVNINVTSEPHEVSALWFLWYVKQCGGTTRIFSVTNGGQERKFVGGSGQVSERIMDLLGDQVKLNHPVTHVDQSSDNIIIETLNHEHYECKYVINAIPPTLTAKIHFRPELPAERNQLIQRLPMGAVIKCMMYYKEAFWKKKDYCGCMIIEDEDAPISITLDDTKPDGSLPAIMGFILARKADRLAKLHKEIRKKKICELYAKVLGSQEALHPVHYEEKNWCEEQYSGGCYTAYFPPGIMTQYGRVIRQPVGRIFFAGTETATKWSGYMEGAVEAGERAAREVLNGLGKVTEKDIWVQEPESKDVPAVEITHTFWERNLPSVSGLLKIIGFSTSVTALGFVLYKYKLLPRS

[10] = target: cGMP-inhibited 3',5'-cyclic phosphodiesterase 3A (Homo sapiens, UniProt Q14432); assay type: functional
Sequence of cGMP-inhibited 3',5'-cyclic phosphodiesterase 3A (Q14432 whole entry): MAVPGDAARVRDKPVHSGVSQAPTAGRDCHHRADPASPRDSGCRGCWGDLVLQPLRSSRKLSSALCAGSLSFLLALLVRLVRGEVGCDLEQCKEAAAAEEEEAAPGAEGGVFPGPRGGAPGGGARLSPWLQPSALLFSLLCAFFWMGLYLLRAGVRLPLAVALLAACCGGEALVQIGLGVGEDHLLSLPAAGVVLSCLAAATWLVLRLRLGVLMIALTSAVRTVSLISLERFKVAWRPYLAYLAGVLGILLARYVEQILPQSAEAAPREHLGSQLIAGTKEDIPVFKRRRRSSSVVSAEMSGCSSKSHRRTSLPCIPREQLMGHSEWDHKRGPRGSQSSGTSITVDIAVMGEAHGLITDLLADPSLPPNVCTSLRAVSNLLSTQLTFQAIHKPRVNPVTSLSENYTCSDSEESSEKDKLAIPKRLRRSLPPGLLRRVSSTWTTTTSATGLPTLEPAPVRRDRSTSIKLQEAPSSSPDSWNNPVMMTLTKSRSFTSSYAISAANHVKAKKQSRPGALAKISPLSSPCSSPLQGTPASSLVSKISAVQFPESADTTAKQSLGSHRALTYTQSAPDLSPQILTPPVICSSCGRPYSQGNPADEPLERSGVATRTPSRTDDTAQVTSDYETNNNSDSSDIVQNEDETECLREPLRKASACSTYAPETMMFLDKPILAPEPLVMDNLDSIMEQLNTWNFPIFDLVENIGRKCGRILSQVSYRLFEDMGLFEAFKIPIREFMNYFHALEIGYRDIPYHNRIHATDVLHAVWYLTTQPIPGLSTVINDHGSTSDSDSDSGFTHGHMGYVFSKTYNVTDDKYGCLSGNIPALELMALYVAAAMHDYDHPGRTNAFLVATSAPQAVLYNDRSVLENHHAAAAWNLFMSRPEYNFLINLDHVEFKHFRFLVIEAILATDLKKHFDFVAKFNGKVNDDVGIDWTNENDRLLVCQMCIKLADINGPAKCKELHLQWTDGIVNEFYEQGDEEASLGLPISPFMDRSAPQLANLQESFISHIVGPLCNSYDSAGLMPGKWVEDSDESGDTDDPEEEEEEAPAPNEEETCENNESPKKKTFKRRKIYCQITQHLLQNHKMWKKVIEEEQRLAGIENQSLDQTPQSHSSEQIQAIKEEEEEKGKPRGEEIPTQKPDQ

[11] = target: T2, Alpha-1A adrenergic receptor; assay type: functional, cell-based
Cannabinoid receptor 1 = Cannabinoid receptor 1 (Homo sapiens, UniProt P21554); assay type: functional, cell-based
Sequence of Cannabinoid receptor 1 (P21554 whole entry): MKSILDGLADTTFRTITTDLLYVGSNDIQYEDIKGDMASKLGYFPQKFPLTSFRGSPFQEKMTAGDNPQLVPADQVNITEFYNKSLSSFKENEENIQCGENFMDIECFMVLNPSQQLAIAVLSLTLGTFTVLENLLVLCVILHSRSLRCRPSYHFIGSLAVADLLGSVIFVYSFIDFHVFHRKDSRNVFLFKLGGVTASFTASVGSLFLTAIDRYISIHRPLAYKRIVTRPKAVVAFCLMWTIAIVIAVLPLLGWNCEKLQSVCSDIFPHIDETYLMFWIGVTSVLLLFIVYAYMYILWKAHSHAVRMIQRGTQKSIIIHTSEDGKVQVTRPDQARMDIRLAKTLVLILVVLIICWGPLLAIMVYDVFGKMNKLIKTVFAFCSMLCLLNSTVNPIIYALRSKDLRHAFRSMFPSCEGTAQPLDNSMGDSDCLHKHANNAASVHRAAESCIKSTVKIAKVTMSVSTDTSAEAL
Further: assay procedure not described here.

SMILES	AC50 (Adenosine receptor A1) [µM]	AC50 [1] [µM]	AC50 [2] [µM]	AC50 [3] [µM]	AC50 [4] [µM]	AC50 [5] [µM]	AC50 (Histamine H2 receptor) [µM]	AC50 [6] [µM]	AC50 [7] [µM]	AC50 (Melanocortin receptor 4) [µM]	AC50 [8] [µM]	AC50 [9] [µM]	AC50 [10] [µM]	AC50 [11] [µM]	AC50 (Cannabinoid receptor 1) [µM]
OCC(O)COc1ccc(Cl)cc1 (stereo not drawn)	> 10	> 10	> 10	> 10	> 10	> 10	> 10	> 10	> 30	> 10	> 10	> 10	> 30		
O=C(O[C@H]1C[N+]2(CCCOc3ccccc3)CCC1CC2)C(O)(c1cccs1)c1cccs1 [ACLIDINIUM BROMIDE]	> 30			> 10	> 10	> 30			> 30	> 30	> 10	> 10	> 30		
O=C(O)CCCC[C@@H]1SC[C@@H]2NC(=O)N[C@@H]21 [BIOTIN]	> 10		> 10	> 10	> 10	> 10	> 10	> 10	> 30	> 10	> 10	> 10	> 30		
CC(NC(C)(C)C)C(=O)c1cccc(Cl)c1 (stereo not drawn) [BUPROPION]	> 30		> 10	> 10		> 30	> 10	> 10	> 30	> 30		> 10		> 30	> 30
CN(Cc1ccc(C(C)(C)C)cc1)Cc1cccc2ccccc12 [BUTENAFINE]	> 10	> 10	> 10	> 10	> 10	> 10	> 10	> 10	> 30	> 10	> 10	> 10	> 30		
CC(=O)OCC1=C(C(=O)O)N2C(=O)[C@@H](NC(=O)CSc3ccncc3)[C@H]2SC1 [CEPHAPIRIN]	> 10	> 10	> 10	> 10	> 10	> 10	> 10	> 10	> 30	> 10	> 10	> 10	> 30		
Nc1nc(Cl)nc2c1ncn2[C@@H]1O[C@H](CO)[C@@H](O)[C@@H]1F [CLOFARABINE]	2.3	29	> 10	> 30	> 30	> 30	> 30	> 30	> 30	> 30	> 30	> 30	6.4		
CC1CC(OC(=O)C(O)c2ccccc2)CC(C)(C)C1 (stereo not drawn) [CYCLANDELATE]	> 10	> 10	> 10	> 10	> 10	> 10	> 10	> 10	> 30	> 10	> 30	> 10	> 30		
CN(C)CCOC(=O)C(c1ccccc1)C1(O)CCCC1 (stereo not drawn) [CYCLOPENTOLATE]	> 10	> 30	> 10	> 10	> 10	> 10	> 30	> 10	> 30	> 10	> 30	> 30	> 30		
COC(=O)[C@H]1[C@H]2C[C@@H]3c4[nH]c5ccccc5c4CCN3C[C@H]2C[C@@H](OC(=O)c2cc(OC)c(OC)c(OC)c2)[C@@H]1OC [DESERPIDINE]	> 30	> 10	> 10	> 10	> 30	24.6	> 10	> 10	> 30	8.6	> 10	> 10	> 30		
CCc1ccc(C(=O)C(C)CN2CCCCC2)cc1 (stereo not drawn) [EPERISONE]	> 30	> 30	> 30	> 30	> 30	> 30	> 30	> 30	> 30		> 30	> 30	> 30	> 30	
CCC1(C)CC(=O)NC1=O (stereo not drawn) [ETHOSUXIMIDE]	> 10	> 30	> 10	> 10	> 10	> 10	> 30	> 10	> 30	> 10	> 10	> 10	> 30		
CCC(NC(C)C)C(O)c1ccc(O)c(O)c1 (stereo not drawn) [ISOETHARINE]	> 30	> 30	> 30	> 30	> 30	> 30	> 30	> 30	> 30		19.6	> 30	> 30		
CCN(CC)CC(=O)Nc1c(C)cccc1C [LIDOCAINE]	> 30					> 30				22.7			> 10		
COc1nc(C)nc(Cl)c1N=C1NCCN1 [MOXONIDINE]	> 30	> 30		> 30	> 30	> 30	16	> 30	> 30		> 30	> 30	> 30	0.09	> 30
